# Measurements published in patent US9157917B2, “Applications of Indoloindole and Indoloquinoline dyes” (Biosynth AG, priority 2010, dated 2015).
# Experiments:
# [1] = system: various bacterial strains; test: Nonanoate indicators in buffered peptone water in polystyrene plates; type: cell-based; details: 0.4 mM, polystyrene plate, 37° C., 48 hours, excitation 360 nm, emission 560 nm
# Procedure: Buffered peptone water containing either 0.4 mM Aldol™ 495 nonanoate or 0.2 mM 4-methylumbelliferyl nonanoate was dispensed in a microtiter plate and inoculated with about 700 cfu/ml of various bacterial strains. […] An excitation wavelength of 360 nm was used for both dyes, the emission wavelength was 560 nm for the Aldol™ 495 dye and 460 nm for the 4-methylumbelliferone.
# [2] = system: Salmonella; test: Salmonella grown in medium with precursor emulsion in glass tubes; type: cell-based; details: medium without detergents
# [3] = system: E. coli; test: Fluorescence of Aldol 495 nonanoate in nutrient broth cultures; type: cell-based
# [4] = system: S. enteritidis; test: as above; details: for Fluorescence values: S. enteritidis
# [5] = Fluorescence of Aldol 495 nonanoate in nutrient broth, sterile control; type: physicochemical
compound,measurement,setting,value
CCCCCCCCC(=O)Oc1cn(-c2ccccc2C(=O)c2cccn2C)c2cc(Cl)ccc12 [Aldol™ 495 nonanoate],Specificity of fluorescence,[1],specific for Salmonella strains
same,Fluorescence of Salmonella culture,[2],yellow green fluorescence
same,Fluorescence values,"[3]; stock solution 50 mM, 0 h",424 RFU
same,Fluorescence values,"[3]; stock solution 50 mM, 12 h",463 RFU
same,Fluorescence values,"[3]; stock solution 50 mM, 18 h",551 RFU
same,Fluorescence values,"[3]; stock solution 50 mM, 48 h",1710 RFU
same,Fluorescence values,"[3]; stock solution 50 mM, 120 h",3851 RFU
same,Fluorescence values,"[3]; stock solution 200 mM, 0 h",444 RFU
same,Fluorescence values,"[3]; stock solution 200 mM, 12 h",404 RFU
same,Fluorescence values,"[3]; stock solution 200 mM, 18 h",468 RFU
same,Fluorescence values,"[3]; stock solution 200 mM, 48 h",774 RFU
same,Fluorescence values,"[3]; stock solution 200 mM, 120 h",1924 RFU
same,"Fluorescence signal, indicator added from 20 mM stock solution versus 200 mM stock solution",[4],stronger fluorescence signal
same,Fluorescence values,"[4]; stock solution 50 mM, 0 h",406 RFU
same,Fluorescence values,"[4]; stock solution 50 mM, 12 h",2922 RFU
same,Fluorescence values,"[4]; stock solution 50 mM, 18 h",10047 RFU
same,Fluorescence values,"[4]; stock solution 50 mM, 48 h",45027 RFU
same,Fluorescence values,"[4]; stock solution 50 mM, 120 h",13424 RFU
same,Fluorescence values,"[4]; stock solution 200 mM, 0 h",412 RFU
same,Fluorescence values,"[4]; stock solution 200 mM, 12 h",1812 RFU
same,Fluorescence values,"[4]; stock solution 200 mM, 18 h",3449 RFU
same,Fluorescence values,"[4]; stock solution 200 mM, 48 h",8403 RFU
same,Fluorescence values,"[4]; stock solution 200 mM, 120 h",5169 RFU
same,Fluorescence values,"[5]; stock solution 50 mM, 0 h",392 RFU
same,Fluorescence values,"[5]; stock solution 50 mM, 12 h",445 RFU
same,Fluorescence values,"[5]; stock solution 50 mM, 18 h",434 RFU
same,Fluorescence values,"[5]; stock solution 50 mM, 48 h",511 RFU
same,Fluorescence values,"[5]; stock solution 50 mM, 120 h",523 RFU
same,Fluorescence values,"[5]; stock solution 200 mM, 0 h",433 RFU
same,Fluorescence values,"[5]; stock solution 200 mM, 12 h",399 RFU
same,Fluorescence values,"[5]; stock solution 200 mM, 18 h",411 RFU
same,Fluorescence values,"[5]; stock solution 200 mM, 48 h",422 RFU
same,Fluorescence values,"[5]; stock solution 200 mM, 120 h",455 RFU
